Measurements reported in the CheMixHub viscosity set.
± gives the uncertainty stated by the source.

Assay: xn = mol fraction of the nth substance listed

Nc1cccc(Cl)c1 + CCOCCO
303.15 K, 101 kPa
Details	viscosity [mPa·s]
x1 = 0.0966	2.028 ± 0.52
x1 = 0.1696	2.159 ± 0.55
x1 = 0.2725	2.333 ± 0.59
x1 = 0.3613	2.473 ± 0.63
x1 = 0.4791	2.643 ± 0.67
x1 = 0.5648	2.755 ± 0.7
x1 = 0.68	2.897 ± 0.74
x1 = 0.7804	3.008 ± 0.77
x1 = 0.8884	3.121 ± 0.8

OC(O)C(Cl)(Cl)Cl + O
293.15 K, 101 kPa
Details	viscosity [mPa·s]
x1 = 0.026	1.276 ± 0.22
x1 = 0.0441	1.631 ± 0.32
x1 = 0.06	1.841 ± 0.38

CCCOC(=O)CC + CCCCCCCCCCCCCC
298.15 K, 101.33 kPa
Details	viscosity [mPa·s]
x2 = 0.0774	0.704 ± 0.007
x2 = 0.1347	0.757 ± 0.007
x2 = 0.2041	0.828 ± 0.008
x2 = 0.2829	0.915 ± 0.009
x2 = 0.3321	0.972 ± 0.009
x2 = 0.4571	1.13 ± 0.011
x2 = 0.5528	1.263 ± 0.012
x2 = 0.6895	1.473 ± 0.013
x2 = 0.8219	1.706 ± 0.015
x2 = 0.9084	1.878 ± 0.017

CCC(=O)O + Cc1ccccc1N
viscosity [mPa·s], 100 kPa
Details	x2 = 0.0977	x2 = 0.1983	x2 = 0.2728	x2 = 0.3622	x2 = 0.4952	x2 = 0.5997	x2 = 0.6763	x2 = 0.7449	x2 = 0.8891
303.15 K	1.2 ± 0.04	1.45 ± 0.05	1.64 ± 0.05	1.85 ± 0.06	2.16 ± 0.07	2.4 ± 0.08	2.57 ± 0.08	2.72 ± 0.09	3.03 ± 0.09
308.15 K	1.1 ± 0.04	1.31 ± 0.04	1.47 ± 0.05	1.65 ± 0.05	1.91 ± 0.06	2.11 ± 0.07	2.25 ± 0.07	2.38 ± 0.07	2.64 ± 0.08
313.15 K	1 ± 0.03	1.19 ± 0.04	1.32 ± 0.04	1.48 ± 0.05	1.71 ± 0.05	1.88 ± 0.06	2 ± 0.06	2.11 ± 0.07	2.33 ± 0.07
318.15 K	0.91 ± 0.03	1.07 ± 0.03	1.18 ± 0.04	1.32 ± 0.04	1.51 ± 0.05	1.66 ± 0.05	1.76 ± 0.06	1.85 ± 0.06	2.03 ± 0.06

ClCCCCCl + CCC(C)O
101 kPa
Details	viscosity [mPa·s]
298.15 K, x1 = 0.1012	2.118 ± 0.021
298.15 K, x1 = 0.2021	1.633 ± 0.016
298.15 K, x1 = 0.2996	1.408 ± 0.014
298.15 K, x1 = 0.4004	1.281 ± 0.013
298.15 K, x1 = 0.4967	1.199 ± 0.012
298.15 K, x1 = 0.5999	1.158 ± 0.011
298.15 K, x1 = 0.7024	1.143 ± 0.011
298.15 K, x1 = 0.7987	1.151 ± 0.011
298.15 K, x1 = 0.899	1.199 ± 0.012
313.15 K, x1 = 0.1002	1.369 ± 0.016
313.15 K, x1 = 0.2041	1.123 ± 0.015
313.15 K, x1 = 0.3125	0.9913 ± 0.015
313.15 K, x1 = 0.3996	0.9298 ± 0.016
313.15 K, x1 = 0.5046	0.8882 ± 0.017
313.15 K, x1 = 0.6034	0.8716 ± 0.018
313.15 K, x1 = 0.7008	0.8721 ± 0.019
313.15 K, x1 = 0.8052	0.8932 ± 0.021
313.15 K, x1 = 0.9001	0.9458 ± 0.023

CC12CCC(CC1)C(C)(C)O2 + Cc1ccc(O)cc1
viscosity [mPa·s], 101 kPa
Details	x1 = 0.065	x1 = 0.1353	x1 = 0.2115	x1 = 0.2943	x1 = 0.3849	x1 = 0.4841	x1 = 0.5935	x1 = 0.7145	x1 = 0.8492
303.15 K	10.05 ± 0.26	10.4 ± 0.26	10.3 ± 0.26	9.855 ± 0.25	8.969 ± 0.23	7.588 ± 0.2	6 ± 0.17	4.552 ± 0.13	3.36 ± 0.099
308.15 K	8.061 ± 0.21	8.368 ± 0.22	8.359 ± 0.22	8.056 ± 0.21	7.332 ± 0.2	6.325 ± 0.17	5.03 ± 0.14	3.799 ± 0.11	2.854 ± 0.085
313.15 K	6.612 ± 0.18	6.841 ± 0.19	6.808 ± 0.19	6.617 ± 0.18	6.12 ± 0.17	5.364 ± 0.15	4.313 ± 0.12	3.244 ± 0.095	2.467 ± 0.074

CCC(=O)O + CCc1ccccc1
308.15 K, 101.33 kPa
Details	viscosity [mPa·s]
x1 = 0.1393	0.5916 ± 0.0076
x1 = 0.2634	0.6031 ± 0.0075
x1 = 0.3813	0.6196 ± 0.0074
x1 = 0.4881	0.6386 ± 0.0074
x1 = 0.5891	0.6621 ± 0.0075
x1 = 0.6835	0.6881 ± 0.0075
x1 = 0.7694	0.721 ± 0.0077
x1 = 0.8518	0.7666 ± 0.0079
x1 = 0.9275	0.8175 ± 0.0083

CCCCCCCCCCCCCC[P+](CCCCCC)(CCCCCC)CCCCCC.c1c[n-]nn1 + O=C=O
Details	viscosity [mPa·s]
298.15 K, 100 kPa, x2 = 0.38	419 ± 17

O=C(O)c1ccccc1O + CCCO
viscosity [mPa·s]
Details	308.15 K	313.15 K	318.15 K	323.15 K
101 kPa, x1 = 0.133	2.13 ± 0.018	–	–	1.51 ± 0.014
101 kPa, x1 = 0.16	2.236 ± 0.019	–	–	1.602 ± 0.015
101 kPa, x1 = 0.179	2.427 ± 0.02	–	–	1.69 ± 0.016
101 kPa, x1 = 0.191	2.4 ± 0.02	–	–	1.722 ± 0.016
101.33 kPa, x1 = 0.16	2.236 ± 0.059	2.012 ± 0.053	1.791 ± 0.048	1.602 ± 0.042
101.33 kPa, x1 = 0.19	–	2.17 ± 0.057	1.929 ± 0.051	1.722 ± 0.046

CC12CCC(CC1)C(C)(C)O2 + CCCCCC
298.15 K, 101.33 kPa
Details	viscosity [mPa·s]
x2 = 0.0339	2.317 ± 0.053
x2 = 0.0677	2.11 ± 0.048
x2 = 0.1616	1.642 ± 0.038
x2 = 0.2491	1.325 ± 0.032
x2 = 0.3454	1.063 ± 0.026
x2 = 0.4734	0.8 ± 0.02
x2 = 0.6205	0.593 ± 0.016
x2 = 0.7181	0.491 ± 0.014
x2 = 0.8281	0.4 ± 0.012
x2 = 0.8953	0.359 ± 0.011
x2 = 0.9363	0.33 ± 0.01
